Results as given in ChEMBL document CHEMBL3593223, “Neolignans with a Rare 2-Oxaspiro[4.5]deca-6,9-dien-8-one Motif from the Stem Bark of Cinnamomum subavenium” (J Nat Prod, 2015).

Assays:
[1] = Cytotoxicity against mouse RAW264.7 cells assessed as survival rate at 200 uM after 48 hrs by MTT assay in presence of LPS relative to control; format: cell-based; details: read-out: Survival
[2] = Cytotoxicity against mouse RAW264.7 cells assessed as survival rate at 200 uM after 48 hrs by MTT assay in absence of LPS relative to control; format: cell-based; details: read-out: Survival
RAW264.7 = test: Antiinflammatory activity in mouse RAW264.7 cells assessed as inhibition of LPS-induced nitric oxide production after 24 hrs by Griess assay; format: functional, cell-based; details: RAW264.7, 24 h

## COC1=CC2(C=C(OC)C1=O)[C@@H](CO)[C@H](c1cc(OC)c(O)c(OC)c1)O[C@H]2[C@H](O)CO
[1]
  viability at 48 h, 200 µM: 111%
[2]
  viability at 48 h, 200 µM: 102%
RAW264.7
  IC50: 4.3 µM

## COC1=CC2(C=C(OC)C1=O)[C@H](CO)[C@@H](c1ccc(O)c(OC)c1)O[C@@H]2[C@@H](O)CO
[1]
  viability at 48 h, 200 µM: 104%
[2]
  viability at 48 h, 200 µM: 98%
RAW264.7
  IC50: 17.9 µM

## COC1=CC2(C=C(OC)C1=O)[C@@H](CO)[C@H](c1ccc(O)c(OC)c1)O[C@H]2[C@H](O)CO
[1]
  viability at 48 h, 200 µM: 90%
[2]
  viability at 48 h, 200 µM: 99%
RAW264.7
  IC50: 5.6 µM

## COC1=CC2(C=C(OC)C1=O)[C@H](CO)[C@@H](c1cc(OC)c(O)c(OC)c1)O[C@@H]2[C@@H](O)CO
[1]
  viability at 48 h, 200 µM: 109%
[2]
  viability at 48 h, 200 µM: 101%
RAW264.7
  IC50: 15.1 µM

## C[C@@H]1C[C@H]2[C@@H]3CCC4=CC(=O)C=C[C@]4(C)[C@@]3(F)[C@@H](O)C[C@]2(C)[C@@]1(O)C(=O)CO [DEXAMETHASONE]
[1]
  viability at 48 h, 200 µM: 100%
[2]
  viability at 48 h, 200 µM: 91%
RAW264.7
  IC50: 0.63 µM
